Literature values, collected in patent US8992954B2, “Compositions comprising a derivative of 5-aminolevulinic acid” (Photocure ASA, priority 2010, dated 2015).

Test system: skin
Conditions: Eucerin cream base with 5%, 10% and 20% by weight of ALA; occlusion 4 hours; visible light

Compound: NCC(=O)CCC(=O)O [Composition 5-ALA, 5-amino-4-oxo-pentanoic acid]
- Complaints during illumination: All volunteers complained about burning and itching
- Pigmentary response: pigmentary response was observed
- Skin reactions after the illumination: erythema and edema appeared
